One may read the pKi as −log10 of the Ki, conventionally taken in molar units. A word on the Kb: it is the equilibrium dissociation constant of an antagonist, usually derived from a functional assay. The pIC50 is the IC50 on a negative log10 scale, so that one unit is a factor of ten.

pIC50, pKi: −log10 of the molar value. Active and inactive are the calls of the source. No cut-off for these calls is given here. Where only a bound is given, the exact number is not on record here.

The species named for experiment [1] is Homo sapiens. The experiment can be described thus: Selectivity index, ratio of Ki for recombinant human adenosine A2B receptor to Ki for recombinant human adenosine A1 receptor.
The target of a further experiment is T1, Adenosine receptor A2b (Homo sapiens, UniProt P29275).
T1 sequence (P29275 whole entry): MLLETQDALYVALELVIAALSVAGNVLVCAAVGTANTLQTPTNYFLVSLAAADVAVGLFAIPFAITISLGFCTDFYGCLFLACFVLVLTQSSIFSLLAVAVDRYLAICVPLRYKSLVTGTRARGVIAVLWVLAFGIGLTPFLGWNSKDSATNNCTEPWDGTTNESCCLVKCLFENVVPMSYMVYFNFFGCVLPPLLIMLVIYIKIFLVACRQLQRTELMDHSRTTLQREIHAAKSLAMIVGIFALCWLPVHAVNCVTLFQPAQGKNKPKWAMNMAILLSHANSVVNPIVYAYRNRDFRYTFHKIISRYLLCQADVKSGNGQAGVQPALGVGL
The experiment can be described thus: Antagonist activity at recombinant human adenosine A2B receptor expressed in CHO cells assessed as inhibition of NECA-induced adenylyl cyclase activity after 20 mins by [alpha-32P]ATP assay. It counts as functional, cell-based.

Experiment [2] concerns the target T2, Adenosine receptor A1 (Mus musculus) (UniProt Q60612).
T2 sequence (whole entry): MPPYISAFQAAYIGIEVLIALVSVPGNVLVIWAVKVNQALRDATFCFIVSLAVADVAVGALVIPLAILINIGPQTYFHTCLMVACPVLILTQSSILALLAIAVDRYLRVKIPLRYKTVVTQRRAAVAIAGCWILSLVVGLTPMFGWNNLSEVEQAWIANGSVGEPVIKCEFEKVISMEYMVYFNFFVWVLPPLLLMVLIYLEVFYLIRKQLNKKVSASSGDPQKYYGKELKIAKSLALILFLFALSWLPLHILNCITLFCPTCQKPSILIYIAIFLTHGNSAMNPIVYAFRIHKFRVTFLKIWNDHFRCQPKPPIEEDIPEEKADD
The experiment can be described thus: Activity at adenosine A1 receptor in BALB/C mouse ileum assessed as effect on amplitude of rhythmic spontaneous contractions at 1 uM after 1 hr. The format is functional.

Experiment [3] concerns the target T3, Adenosine receptor A1 (Homo sapiens, UniProt P30542).
T3 sequence (P30542 whole entry): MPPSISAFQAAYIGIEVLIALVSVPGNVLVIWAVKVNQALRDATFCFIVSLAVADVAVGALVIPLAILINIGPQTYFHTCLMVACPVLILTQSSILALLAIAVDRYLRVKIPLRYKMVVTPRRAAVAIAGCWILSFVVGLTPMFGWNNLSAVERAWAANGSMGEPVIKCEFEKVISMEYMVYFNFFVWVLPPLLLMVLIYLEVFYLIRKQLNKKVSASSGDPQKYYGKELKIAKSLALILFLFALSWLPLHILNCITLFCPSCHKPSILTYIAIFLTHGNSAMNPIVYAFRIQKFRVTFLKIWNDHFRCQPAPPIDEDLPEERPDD
The experiment can be described thus: Displacement of [3H]CCPA from recombinant human adenosine A1 receptor transfected in CHO cell membranes after 3 hrs by microbeta scintillation counting analysis. A general note: Loss of bound radioactivity is the signal in a displacement assay; it reports binding, not function.

In another experiment the target is Adenosine receptor A2a (Homo sapiens, UniProt P29274). The experiment can be described thus: Displacement of [3H]NECA from recombinant human adenosine A2A receptor transfected in CHO cell membranes after 3 hrs by microbeta scintillation counting analysis.
Experiment [4] is filed under the species Homo sapiens. The experiment can be described thus: Selectivity index, ratio of Ki for recombinant human adenosine A2A receptor to Ki for recombinant human adenosine A1 receptor.
The target of experiment [5] is T2, Adenosine receptor A1 (Mus musculus). The experiment can be described thus: Antagonist activity at adenosine A1 receptor in BALB/C mouse ileum assessed as reversal of CCPA-induced reduction in rhythmic spontaneous contractions at 1 uM after 1 hr. The format is functional.
For experiment [6], the target named is T3, Adenosine receptor A1. The experiment can be described thus: Antagonist activity at recombinant human adenosine A1 receptor transfected in CHO cells assessed as inhibition of CCPA-induced cAMP accumulation preincubated for 10 mins followed by CCPA addition by GloSensor cAMP assay. The format is functional, cell-based.
Experiment [7] addresses T2, Adenosine receptor A1 (Mus musculus). The experiment can be described thus: Activity at adenosine A1 receptor in BALB/C mouse ileum assessed as effect on frequency of rhythmic spontaneous contractions at 1 uM after 1 hr. The format is functional.
For another experiment, the target named is T4, Adenosine receptor A3 (Homo sapiens, UniProt P0DMS8).
T4 sequence (P0DMS8 whole entry): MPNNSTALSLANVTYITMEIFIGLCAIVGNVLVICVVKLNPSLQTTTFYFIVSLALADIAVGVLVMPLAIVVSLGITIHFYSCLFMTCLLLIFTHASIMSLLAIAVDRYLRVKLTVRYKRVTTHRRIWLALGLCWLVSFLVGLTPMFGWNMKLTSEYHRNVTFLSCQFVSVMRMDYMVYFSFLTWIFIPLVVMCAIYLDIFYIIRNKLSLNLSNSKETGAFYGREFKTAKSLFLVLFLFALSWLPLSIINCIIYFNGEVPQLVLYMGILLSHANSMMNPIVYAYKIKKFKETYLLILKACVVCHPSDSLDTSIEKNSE
The experiment can be described thus: Displacement of [3H]NECA from recombinant human adenosine A3 receptor transfected in CHO cell membranes after 3 hrs by microbeta scintillation counting analysis.

The target of experiment [8] is Adenosine receptors; A1 & A3 (Homo sapiens) (UniProt P30542+P0DMS8). The experiment can be described thus: Selectivity index, ratio of Ki for recombinant human adenosine A3 receptor to Ki for recombinant human adenosine A1 receptor.
In experiment [9] the target is T2, Adenosine receptor A1 (Mus musculus). The experiment can be described thus: Antagonist activity at adenosine A1 receptor in BALB/C mouse ileum assessed as reversal of 1 uM CCPA-induced reduction in rhythmic spontaneous contractions by measuring tissue response at 1 uM after 1 hr (reference value: 20%). It counts as functional. Set-up: scale not given: the % may be the effect or the level left.

For experiment [10] the target is unchanged. The experiment can be described thus: Antagonist activity at adenosine A1 receptor in BALB/C mouse ileum assessed as reversal of 0.1 uM CCPA-induced reduction in rhythmic spontaneous contractions by measuring tissue response at 1 uM after 1 hr (reference value: 65%). The format is functional. Set-up: scale not given: the % may be the effect or the level left.

Experiment [11] shares this target. The experiment can be described thus: Reversible antagonist activity at adenosine A1 receptor in BALB/C mouse ileum assessed as reversal of CCPA-induced reduction in rhythmic spontaneous contractions at 1 uM incubated for 1 hr measured after compound wash out. The format is functional.

Sequence of Adenosine receptor A2a (P29274 whole entry): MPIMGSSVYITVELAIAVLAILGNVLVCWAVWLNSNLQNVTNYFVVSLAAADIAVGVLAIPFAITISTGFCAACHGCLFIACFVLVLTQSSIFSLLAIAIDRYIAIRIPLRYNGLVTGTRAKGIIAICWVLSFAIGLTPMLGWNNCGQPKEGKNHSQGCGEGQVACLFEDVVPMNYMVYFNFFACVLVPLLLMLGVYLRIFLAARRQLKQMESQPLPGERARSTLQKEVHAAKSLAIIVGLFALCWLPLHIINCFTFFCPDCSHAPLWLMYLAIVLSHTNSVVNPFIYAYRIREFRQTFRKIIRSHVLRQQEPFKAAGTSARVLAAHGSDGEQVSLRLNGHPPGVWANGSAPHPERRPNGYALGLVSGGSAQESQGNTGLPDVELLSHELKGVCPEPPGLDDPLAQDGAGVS

As to `Cn1c(-c2ccc(O)cc2)nc2c(NC3CCCC3)ncnc21`, the values for the Ratio Ki (in the experiment listed under Homo sapiens [1]; in the experiment filed under Homo sapiens [4]; in experiment [8]) were 1050, 31 and 31, respectively. For the same molecule, the pKi on Adenosine receptor A2b is 4.75; on Adenosine receptor A1 [3], 7.77; at Adenosine receptor A2a it was 6.27; at Adenosine receptor A3 it was 6.28. Further, the result in experiment [2] and in [7] was inactive. In addition, the Kb in experiment [5] amounted to 0.066 µM. Also, on Adenosine receptor A1 [6], the pIC50 is 7.28.
Consider `Cc1ccc(-c2nc3c(NC4CCCC4)ncnc3n2C)cc1`, for which the Ratio Ki in the experiment listed under Homo sapiens [1] is > 3750; in the experiment listed under Homo sapiens [4] it was 225; in experiment [8] it was 60. The negative logarithm of the Ki (pKi) on Adenosine receptor A2b was < 4.52; on Adenosine receptor A1 [3] it was 8.10; on Adenosine receptor A2a it was 5.74; on Adenosine receptor A3 it was 6.32. Moreover, the result in experiment [2] and in experiment [7] was inactive. Also, the Kb in [5] stood at 0.177 µM. Moreover, the pIC50 on Adenosine receptor A1 [6] is 7.21.
In the case of `Cn1c(-c2ccc(F)cc2)nc2c(NC3CCCC3)ncnc21`, the Ratio Ki is > 4840 in the experiment listed under Homo sapiens [1], 387 in the experiment filed under Homo sapiens [4] and 184 in experiment [8]. The pKi was < 4.52 on Adenosine receptor A2b, 8.21 at Adenosine receptor A1 [3], 5.62 on Adenosine receptor A2a and 5.94 on Adenosine receptor A3. Also, the outcome in experiment [2] and in experiment [7] was inactive. For the same molecule, the Kb in experiment [5] was 0.043 µM. In addition, at Adenosine receptor A1 [6], the pIC50 was 7.49.
On to `Cn1c(-c2ccccc2)nc2c(NC3CCCC3)ncnc21`, for which the Ratio Ki in the experiment listed under Homo sapiens [1] stood at 3040; in the experiment listed under Homo sapiens [4], 178; in experiment [8], 302. The pKi at Adenosine receptor A2b was 5.07; on Adenosine receptor A1 [3], 8.55; at Adenosine receptor A2a, 6.30; on Adenosine receptor A3, 6.07. The outcome in experiment [2] and in experiment [7] was inactive. Further, the Kb in experiment [5] was found to be 0.017 µM. For the same molecule, the pIC50 at Adenosine receptor A1 [6] was 7.85. The Activity in experiment [9] is 75%; in experiment [10] it was 100%. Besides, the inhibition result in [11] is “Active”.
Regarding `Cc1cccc(-c2nc3c(NC4CCCC4)ncnc3n2C)c1`, the figures for the Ratio Ki (in the experiment listed under Homo sapiens [1]; in the experiment filed under Homo sapiens [4]; in [8]) were 973, 73 and 82, respectively. Also, the pKi is 5.22 at Adenosine receptor A2b, 8.21 at Adenosine receptor A1 [3], 6.35 on Adenosine receptor A2a and 6.29 on Adenosine receptor A3. Besides, the result in experiment [2] and in [7] was inactive. Also, the Kb in experiment [5] came out at 0.033 µM. Further, the pIC50 at Adenosine receptor A1 [6] is 7.37.
